Counter-ions that a name gives are not always drawn.

This is an account of results in US3957790A, “N-(3,3-diphenylpropyl)-n'-aralkyl-substituted piperazines” (Tokyo Tanabe Company, Ltd., priority 1974, dated 1976).

The subject of data set [1] is coronary blood flow. Description: coronary blood flow increasing action, measured in rabbits by the Langendorff method. Set-up: species or system rabbit. The source says: The above-mentioned prior known derivatives of piperazine, however, have defects in that they are either too weak in the coronary blood flow increasing action [ED50 (mg)-the dose which can increase the coronary blood flow by 50%] or too strong in toxicity to be put to practical use as remedies for humans. Indeed, only one compound, trimetazidine dihydrochloride, [1-(2,3,4-trimethoxybenzyl)piperazine dihydrochloride)], is now being manufactured as a remedy for humans.
(§1) To illustrate one of the pharmacological effects of these compounds comparative experiments were carried out on the coronary blood flow increasing action, which was measured in rabbits by the Langendorff method, and on acute toxicity using the said trimetazidine as control, with the results being shown in Table 1. The Langendorff method was carried out according to the method described in Folia Pharmacologica Japonica, vol. 56, p. 1387 (1960), and the acute toxicity was measured by injection into the peritoneal cavities of mice.

Data set [2] in a line: acute toxicity by injection into the peritoneal cavities of mice. Conditions: in vivo. As to the method:
as §1

Turning to `COc1ccc(CN2CCN(CCC(c3ccccc3)c3ccccc3)CC2)c(OC)c1OC` [1-(3,3-diphenylpropyl)-4-(2,3,4-trimethoxybenzyl)-piperazinedihydrochloride], the “ED50 (coronary blood flow increasing action; dose which can increase the coronary blood flow by 50%)” value in data set [1] is recorded as 0.02 mg. In data set [2] (mouse, ip), the 50% lethal dose (LD50) (as a rule, the dose at which mortality reaches 50%) came to 100 mg/kg.
As for `COc1cc(CN2CCN(CCC(c3ccccc3)c3ccccc3)CC2)cc(OC)c1OC.Cl.Cl` [1-(3,3-diphenylpropyl)-4-(3,4,5-trimethoxybenzyl)piperazine dihydrochloride], the “ED50 (coronary blood flow increasing action; dose which can increase the coronary blood flow by 50%)” value in data set [1] amounted to 0.06 mg. In data set [2] (ip mouse), this compound registered an LD50 of 89 mg/kg.
Consider `COc1ccc(CN2CCN(CCC(c3ccccc3)c3ccccc3)CC2)cc1OC.Cl.Cl` [1-(3,3-diphenylpropyl)-4-(3,4-dimethoxybenzyl)piperazine dihydrochloride], for which, in data set [1], the “ED50 (coronary blood flow increasing action; dose which can increase the coronary blood flow by 50%)” value stood at 0.05 mg. In addition, the LD50 in data set [2] (ip mouse) is 66 mg/kg.
Turning to `Cl.Cl.c1ccc(CN2CCN(CCC(c3ccccc3)c3ccccc3)CC2)cc1` [1-(3,3-diphenylpropyl)-4-benzylpiperazine dihydrochloride], the “ED50 (coronary blood flow increasing action; dose which can increase the coronary blood flow by 50%)” value in data set [1] is 0.08 mg. Further, the LD50 in data set [2] (ip mouse) amounted to 101 mg/kg.
The corresponding values for `COc1ccc(CN2CCNCC2)c(OC)c1OC.Cl.Cl` [Trimetazidine, 1-(2,3,4-trimethoxybenzyl)piperazine dihydrochloride, reference compound] are 0.80 mg and 390 mg/kg.
